In patent publication US20080003288A1, “Responsive microgel and methods related thereto” (Supratek Pharma Inc., priority 2002, published 2008):
Read-outs that look alike come from different tables or passages of the source.

What was measured:
[1] = Equilibrium loading (uptake) of drugs into microgels; assay type: physicochemical; conditions: pH 7.0, PLURONIC-PAA microgels XL = 1 mol %
Procedure: A microgel was suspended in Tris buffer (5 mM, pH 7.0) and 50 μL of the suspension (2 mg gel/mL buffer) was equilibrated with 3.0 mM stock solution of a drug (450 μL) for 16 h while shaking 44, 45. Shaking was performed using a KS 10 orbital shaker (BEA-Enprotech Corp., Hyde Park, Mass.) in an environmental chamber at 37° C. […] Deionized water was used as a mobile phase (flow rate, 1 mL/min, injection volume, 25 μL), and detection was carried out at 365 nm 47. […] The U values were measured in triplicate for each drug and for each temperature, pH, and gel, respectively. […] This ensured equilibrium U values. […] The beads were separated into several fractions. […] Then the beads were recovered from the suspension by using a magnet. […] The control fraction of loaded beads was subjected to the extraction without equilibration with the microgel suspension.

[2] = cited from earlier work; for Charge: valency of cationic weak base, 0 = uncharged
[3] = Dynamic dialysis without microgels: permeability of the dialysis membrane to free solutes; assay type: physicochemical; conditions: through dialysis membrane, no microgel, from mean K and membrane thickness (eqn 3)
Source text: Drug release from microgels loaded with either DCTAF-labeled PLURONIC® or doxorubicin was studied using the dynamic dialysis technique of Gupta, P. K., et al., J. Pharm. […] A Teflon-made, thermostatted dynamic dialyzer consisted of two chambers, separated by a dialysis membrane (cellulose ester, working area A=0.35 cm^2, molecular weight cut-off 100 kDa, Spectrum Laboratories). […] Concentration of the drug in the receiver solution was monitored online by passing through a thermostatted quartz cuvette (path length 1.0 cm). […] The dialyzer was maintained at 37° C. by submersion in a water bath. The flow rate through the receiver chamber was maintained at 1.5 mL/min. […] The total volume of the receiver solution (Vr), including the chamber, cuvette, and 0.093″ tubing, was 98 mL in all experiments.
Permeability of the dialysis membrane was determined by loading a certain amount (qf^0) of either doxorubicin or PLURONIC® solution into the feed chamber and measuring the kinetics of release. […] The membrane thickness (δ) was measured microscopically in the receiver solution upon completion of the dialysis experiment and was typically in the order of 100 μm. […]
In the control experiments, we measured permeability of the dialysis membrane for doxorubicin and PLURONIC® L61 without loading into microgels. […]

[4] = Transepithelial transport of doxorubicin across Caco-2 monolayers; assay type: in vitro ADME; conditions: human
Procedure: (§1) The drug-containing samples for the transport experiments were prepared as follows. […] The suspension was centrifuged at 8000×g for 0.5 h and the supernatant was removed. The pellet was weighed and resuspended in fresh portion of serum-free DMEM of a known weight. Known amount of doxorubicin and Pluronic were dissolved in the suspension, which was allowed to equilibrate at 37° C. overnight, then snap-frozen and lyophilized. The powders were kept at −70° C. Before the transport experiments, a known amount of powder was reconstituted in DMEM and was allowed to equilibrate at 37° C. overnight.
(§2) Cells were seeded at a density of (2-4)×10^4 cells/cm^2 on top of Transwell™ polycarbonate filters (pore size, 0.4 μm; diameter, 24.5 mm; growth area, 4.71 cm^2) from Costar (Cambridge, Mass.). The cells were grown for 3 weeks prior to the transport experiments and trans-epithelial electrical resistance (TEER) was measured using a Millicell-ERS device (Millipore, Bedford, Mass.) equipped with rod-shaped electrodes. The TEER data were corrected for background readings contributed by the blank filter and culture medium. […] Then the monolayers were rinsed twice by serum-free DMEM and the transport experiment commenced by replacing the medium at either the basolateral or the apical side of the monolayer with 2.5 mL of the serum-free DMEM containing doxorubicin (with or without microgels, see Table 3). Simultaneously, the medium on the other side was refreshed. The monolayers were incubated at 37° C. in 10% CO2 atmosphere. Samples of 200 μL were taken from each side intermittently, and the drug concentration was measured in the samples withdrawn from the side opposite to the side of the drug application. The volumes withdrawn were immediately replaced with equal volumes of serum-free DMEM pre-equilibrated at 37° C. Each experiment was repeated four times. […] Additionally, the concentration of doxorubicin in the medium was measured by HPLC using a Capcell Pak UG C18 (100×4.6 mm I.D., particle size 5 μm) column and a Universal Guard Cartridge System (Phenomenex, Torrance, Calif.). […] Water/acetonitrile (70/30, pH 4) was used as the mobile phase (flow rate, 1 mL/min, injection volume, 5 μL), and detection was carried out using an Argon Ion laser (488 nm, 10 mW). […] Temperature was controlled to ±0.05 C using a circulating water bath. The platinum Wilhelmy plate was washed with acetone, rinsed in Milli-Q water, and flamed until red-hot before each measurement.
(§3) The apparent permeability of the Caco-2 monolayer (Pa, cm/s) was calculated from the linearized time course of the doxorubicin fractional transport (dI1t/dt in the fluorescence assay and dCt/dt in the HPLC assay) normalized to the effective surface area of the filter (A=4.71 cm^2) and the initial fluorescence emission intensity reading (Io) or initial doxorubicin concentration (Co) in the donor (basolateral or apical) compartment of volume V=2.5 cm^3: [formula]

Caco-2 monolayers = experiment: as above; assay type: in vitro ADME; conditions: doxorubicin 3 μM in donor, no further additive in DMEM
Procedure: as §1, §2, §3

effective diffusion coefficient (D) [3]	Uptake ± SD ([1]; 20° C.)	Papp A→B at 3 μM ([4]; Caco-2, doxorubicin 3 μM in donor, no further additive in DMEM, read-out: Pa, a→b, HPLC assay) [×10⁻⁶ cm/s]	Papp B→A at 3 µM ([4]; Caco-2, doxorubicin 3 μM in donor, no further additive in DMEM, read-out: apparent permeability, b→a, HPLC assay) [×10⁻⁶ cm/s]	Papp B→A at 3 µM ([4]; Caco-2, doxorubicin 3 μM in donor, no further additive in DMEM, read-out: apparent permeability, b→a, fluorescence assay) [×10⁻⁶ cm/s]	efflux ratio ([4]; Caco-2, no additives, read-out: active efflux exceeding the passive influx)	Pa, a→b, fluorescence assay (Caco-2 monolayers)	SMILES	Uptake ± SD ([1]; 37° C.)	Charge [2]	Log P (n-octanol-to-water partition coefficient) [2]
–	–	–	–	–	–	–	O=C1c2c(O)ccc(O)c2C(=O)c2c(NCCNCCO)ccc(NCCNCCO)c21 [Mitoxantrone]	3.70 ± 0.56 (37° C.) mmol/g	–	–
–	–	–	–	–	–	–	CO[C@@]12[C@H](COC(N)=O)C3=C(C(=O)C(C)=C(N)C3=O)N1C[C@@H]1N[C@@H]12 [Mitomycin C]	5.31 ± 1.86 (37° C.) mmol/g	3	–
2.4×10^−5 cm^2/s	2.97 ± 0.33 (20° C.) mmol/g	0.579	2.75	2.81	4.6	(6.07±0.04)×10^−7 cm/s	COc1cccc2c1C(=O)c1c(O)c3c(c(O)c1C2=O)C[C@@](O)(C(=O)CO)C[C@@H]3O[C@H]1C[C@H](N)[C@H](O)[C@H](C)O1 [Doxorubicin]	2.26 ± 0.37 (37° C.) mmol/g	1	1.85
